Data reported in patent publication US20240361317A1, “PROBES BASED ON VOLATILE ORGANIC COMPOUNDS AND USES THEREOF FOR THE DIAGNOSIS AND PROGNOSIS OF PATHOLOGICAL CONDITIONS” (Centre National de la Recherche Scientifique, priority 2021, published 2024).
One block for each compound: values may come before it.

Legend:
β-glucuronidase [1] = molecular target: T1, β-glucuronidase (Homo sapiens, UniProt P08236); assay: Plasma protocol: labeled ethanol released in headspace of plasma after adding probe; format: biochemical
T1 construct: from tissue; host or cells: human blood plasma
T1 sequence (P08236 23-651): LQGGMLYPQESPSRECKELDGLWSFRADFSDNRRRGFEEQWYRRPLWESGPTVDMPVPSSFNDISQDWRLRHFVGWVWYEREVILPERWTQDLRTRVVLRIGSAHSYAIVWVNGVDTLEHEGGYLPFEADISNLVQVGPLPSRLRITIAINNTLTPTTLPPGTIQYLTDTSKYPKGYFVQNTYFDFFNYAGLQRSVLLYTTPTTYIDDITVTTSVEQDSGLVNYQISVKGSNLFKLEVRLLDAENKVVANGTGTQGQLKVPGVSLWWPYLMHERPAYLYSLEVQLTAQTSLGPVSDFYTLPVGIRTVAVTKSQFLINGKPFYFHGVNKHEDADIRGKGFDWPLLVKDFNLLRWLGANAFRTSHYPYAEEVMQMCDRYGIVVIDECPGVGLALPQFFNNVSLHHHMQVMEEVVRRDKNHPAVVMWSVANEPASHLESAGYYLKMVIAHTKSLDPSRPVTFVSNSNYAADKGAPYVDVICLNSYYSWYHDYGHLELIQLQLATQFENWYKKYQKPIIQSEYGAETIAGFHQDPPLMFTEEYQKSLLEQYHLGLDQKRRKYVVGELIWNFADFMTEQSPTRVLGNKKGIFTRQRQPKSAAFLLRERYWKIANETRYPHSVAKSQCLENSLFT
Experimental: (§1) The plasma (approximately […]) is extracted and stored at −20° C. until analysis. An aliquot of 25 μL of plasma is sampled and inserted into a […] with an insert. This biological sample is added to 50 μL of acetate buffer solution (pH 5), protease inhibitor (1×) and 25 μL probe D5-ethyl-β-D-glucuronide at […]. After hermetic closure and agitation to the vortex of the vial, an SPME (SPME in semi-polar phase of the Car/PDMS, 1 cm long and 75 μm thick type with a 24 ga needle; Supelco) of the gas phase above the sample of a duration of 30 mi is carried out after 2 h, 4 h and 7 h of reaction. Each kinetic point requires a vial reaction, and is carried out in duplicate. The VOCs trapped on the SPME fiber are then analyzed by G-TQMS. GC-TMS detection of the ethanol isotopes (thus including ethanol-D5) is carried out with gas chromatography coupled to a triple quadrupole equipped with an E1 source (TSQ 9000, Thermo Fisher Scientific). The system is controlled by the software TSQ 9000 and the results are analyzed with the Xcalibur software (Thermo Fisher Scientific).
Blood samples were taken by the caregiver associated with the oncological service, then collected and pretreated with the CIC. This study included samples of plasma taken from 11 patients suffering from breast cancer and 11 patients suffering from lung cancer.
These patients were diagnosed, but had at the time of sampling not yet received treatment. Their response was compared to that obtained from the plasma of 4 healthy patients. The results were compared to an experimental blank wherein the probe was added, but the enzyme was not present (FIG. 3). […]
After adding the 4 probes (according to the above protocol), the quantity of the 4 isotopes of the ethanol released above the samples of the patients was measured over time. […]
(§2) According to the plasma protocol described above, the probes were used to detect the six enzymatic activities in these samples. […] The VOCs trapped on the SPME fiber are then analyzed by GC-TQMS according to the parameters defined in Tables 4 and 5. […]

N-acetyl glucosaminidase = assay: Specificity study: hydrolysis of probes by the enzyme; format: biochemical
Experimental: (§3) The detection performances of this compound in the presence of ethanol and ethanol-D5 were then verified. […] The detection ranges of ethanol-D5 and ethanol-^13C-D5 were then carried out under SPME sampling conditions developed for biological samples (30 min of sampling at 30° C.). The two isotopes were present in mixtures in solution. The limits of detection obtained are respectively […]. The SPME-GC-TQMS method therefore allows a sharp differentiation of the two isotopes according to their mass fragmentation. An experimental study was then carried out in order to evaluate the affinity of the D5-ethyl-β-D-glucuronide and ^13C-D5-ethyl-N-acetylglucosamine for their respective enzyme (β-glucuronidase and N-acetyl glucosaminidase). For this, the efficacy of hydrolysis of each of these enzymes was studied in the presence of their respective probe (FIG. 6) then in the presence of the substrate probe of its partner (FIG. 7). […] In the presence of the two substrates, each enzyme gives a signal only for the probe specific to it (FIG. 8).

β-glucuronidase [2] = molecular target: β-glucuronidase (Escherichia coli, UniProt P05804); assay: as above; format: biochemical
Experimental: as §3

[3] = test system: β-glucuronidase present in the extracellular matrix; assay: Ethanol-D5 in headspace of mouse tumor (MDA-MB-231, KB) and healthy liver biopsies after adding probe; conditions: probe 10^−9, 10^−8 and 10^−6 M
Experimental: Thus, tests during which the tumoral and healthy biopsies were placed in the presence of decreasing concentrations of D5-ethyl-β-D-glucuronide were carried out. The probe concentration retained corresponded to the concentration for which no response of healthy tissues was obtained, whereas an enzymatic response was observed on cancer tissues.
In the context of this work, two tumor biopsies, taken on mouse models, were studied (MDA-MB-231: human breast cancer cells, KB: human nasopharynx cancer cells). Two mouse liver biopsies were used as healthy tissues. Probe solutions at 10^−7, 10^−6, 10^−4 and 10^−2 M were prepared in a PBS buffer (137 mM NaCl, 2.7 mM KCl, 10 mM Na2HPO4, 1.8 mM KH2PO4, pH 7.4).
The biopsies were rinsed with 500 μL of PBS and then placed in a vial with an insert of 2 mL. A volume of 297 μL of PBS was added to the vial. The volatile molecules present in the headspace of the vial were trapped for 30 min in order to ensure that no ethanol-D5 was detected. Then 3 μL of probe at […] were added (final probe concentration in the vial of […]). After hermetic closure and vortex agitation, the volatile compounds were preconcentrated on SPME fiber (Car/PDMS, Supelco) for 30 min and then analyzed by GC-TQMS (analysis conditions described in Table 2).

[4] = molecular target: T2, β-glucuronidase of E. coli (Escherichia coli, UniProt P05804); assay: Limit of detection of model β-glucuronidase in plasma matrix with the VOC probe (SPME, GC-TQMS of ethanol-D5); format: biochemical
T2 construct: purchased Sigma Aldrich
Experimental: as §1
The limit of detection (LOD) of a model enzyme (β-glucuronidase of E. coli; liquid solution 50% glycerol, 140 U·mL^−1; Sigma Aldrich) in plasma matrix in the presence of probe D5-ethyl-β-D-glucuronide was then determined. For this, a plasma sample for which the activity of endogenous β-glucuronidase was not detectable, was added to enzyme concentrations ranging from […] to 1.10^−13 mol·L ^−1. The amount of ethanol-D5 released was monitored before adding probe and then after 2.5, 4.5 and 7.5 h of reaction at 30° C.

[5] = Spontaneous hydrolysis of probes in buffer solution / during the reaction; format: physicochemical; conditions: acetate buffer, maximum concentration
Experimental: According to the plasma protocol described above, the probes were used to detect the six enzymatic activities in these samples. To summarize, an aliquot of 25 μL of plasma will be sampled and inserted into a 2 mL vial with an insert. This biological sample was added from 61.4 μL buffer solution (pH 5), 3.6 μL of protease inhibitor (1×) and 10 μL of one or the other of the cocktails. After hermetic closure and agitation to the vortex of the vial, an SPME (SPME in semi-polar phase of the Car/PDMS, 1 cm long and 75 μm thick type with a 24 ga needle, Supelco) of the gas phase above the sample of a duration of 30 min will be carried out after 2 h, 4 h and 7 h of reaction. Each kinetic point requires a vial reaction, and was carried out in duplicate. The VOCs trapped on the SPME fiber are then analyzed by GC-TQMS according to the parameters defined in Tables 4 and 5. Blank cocktails (cocktails in acetate buffer with no plasma) and plasma blanks (plasmas with an acetate buffer without cocktail) were carried out every day of analysis.
The responses of the probes in the plasma samples were compared to their responses in so-called “blank” samples and corresponding to the probes added to the acetate buffer alone.

α-Mannosidase = assay: Plasma protocol: labeled ethanol released in headspace of plasma after adding probe; format: biochemical, human; conditions: Ethanol-D5; Cocktail 3; 10^−3/10^−4 mol·L^−1; Splitless
Description: (§4) In advance, the enzymatic activities present in the blood samples of 7 healthy volunteers aged 20 to 30 years were studied by means of two cocktails of distinct probes (Table 6). This study had the objective (1) to set the final composition of the cocktails, (2) to define the concentrations of the probes to add to blood samples to obtain a significant isotope response knowing that this response would not be linked to spontaneous hydrolysis of the corresponding probes, (3) to define the optimal kinetic point, (4) to have an idea of the range of response of the isotopes of ethanol in healthy plasma samples.
(§5) Furthermore, two samples per patient were carried out in order to study the potential impact on the enzymatic activities here targeted of holding the samples at room temperature for several hours (an action which can take place in hospital conditions). Thus, the first sample was transformed into plasma and then frozen in the hour following the blood sampling. The second was reserved for 5 h at […], before treatment and then freezing. The samples were all stored at −20° C. until analysis.
as §2

α-Glucosidase = assay: as above; format: biochemical, human; conditions: Ethanol-D4; Cocktail 1; 10^−3/10^−4 mol·L^−1; Splitless
Description: as §4, §5, §2

T2 sequence (P05804 whole entry): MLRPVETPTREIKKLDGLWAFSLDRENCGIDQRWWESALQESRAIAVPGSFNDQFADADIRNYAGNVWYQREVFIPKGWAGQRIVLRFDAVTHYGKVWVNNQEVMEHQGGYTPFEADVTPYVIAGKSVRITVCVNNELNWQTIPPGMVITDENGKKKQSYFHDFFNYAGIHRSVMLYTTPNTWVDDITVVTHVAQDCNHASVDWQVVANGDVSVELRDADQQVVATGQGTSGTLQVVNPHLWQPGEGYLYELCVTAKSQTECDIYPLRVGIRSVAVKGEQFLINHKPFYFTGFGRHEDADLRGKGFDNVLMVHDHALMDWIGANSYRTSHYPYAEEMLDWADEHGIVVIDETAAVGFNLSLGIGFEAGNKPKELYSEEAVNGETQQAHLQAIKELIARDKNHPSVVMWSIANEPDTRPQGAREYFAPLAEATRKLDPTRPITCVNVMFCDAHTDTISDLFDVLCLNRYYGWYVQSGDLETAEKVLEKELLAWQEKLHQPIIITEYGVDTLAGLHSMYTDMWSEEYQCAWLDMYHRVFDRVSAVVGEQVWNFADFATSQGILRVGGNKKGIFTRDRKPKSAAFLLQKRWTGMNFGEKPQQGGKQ
β-glucuronidase (Escherichia coli, UniProt P05804), sequence (P05804 whole entry): as above

SMILES: [2H]C([2H])([2H])C([2H])([2H])O[C@@H]1O[C@H](C(=O)O)[C@@H](O)[C@H](O)[C@H]1O [D5-ethyl-β-D-glucuronide]
amount of ethanol-D5 released above plasma of patients with cancer compared to blanks and healthy patients (β-glucuronidase [1]; 11 breast cancer, 11 lung cancer patients, 4 healthy patients): significantly higher
discernment between healthy patients and cancer patients (β-glucuronidase [1]; cocktail of 4 probes, plasma of breast and lung cancer patients vs 4 healthy): allow clear discernment between healthy patients and cancer patients
hydrolysis of probe by N-acetyl glucosaminidase (labeled ethanol signal) (N-acetyl glucosaminidase): does not hydrolyze
hydrolysis of probe by β-glucuronidase (labeled ethanol signal) (β-glucuronidase [2]): has hydrolyzed its own probe
ethanol-D5 release for cancer tissues ([3]; MDA-MB-231 and KB tumor biopsies): release of this isotope was detected
ethanol-D5 response on healthy tissues ([3]; mouse liver biopsies): no response
LOD lower than threshold value of the reference detection method (para-nitrophenol glucuronide, UV) [4]: 100 times
minimum quantity of detectable enzyme ([4]; plasma matrix): 1.10^−18 mol
concentration at which β-glucuronidase can be detected in plasma ([4]; plasma, first results): less than 5.10^−13 M
spontaneous hydrolysis when placing in buffer solution [5]: significant spontaneous hydrolysis

Plasma response range (u.a.) (α-Mannosidase): 1000-50000 u.a.
SMILES: CCC[C@H]1C[C@H](CC)[C@@H](C)[C@H](C)[C@@H]1C [drawing 26]

Plasma response range (u.a.) (α-Glucosidase): 0-3000 u.a.
SMILES: CCC[C@H]1C[C@H](CC)[C@@H](C)[C@H](C)[C@@H]1C [drawing 22]
